According to PMC7796460, “Relation of Metal-Binding Property and Selective Toxicity of 8-Hydroxyquinoline Derived Mannich Bases Targeting Multidrug Resistant Cancer Cells” (Cancers, 2021):
Read-outs that look alike come from different tables or passages of the source.

Key:
MES-SA cells = assay: MTT viability assay, MES-SA; type: cell-based, human
Description: (§1) MDCK II canine kidney cells, A431 epidermoid carcinoma cells, the human uterine sarcoma cell lines MES-SA and the doxorubicin selected MES-SA-Dx5 were obtained from ATCC (MDCK II: No. CRL-2936™, A431: No. CRL-1555™, MES-SA: No. CRL-1976™, MES-SA/Dx5: No. CRL-1977™). ABCB1 was expressed in A431 and MES-SA cells using lentiviral transduction. The human cervix carcinoma cell line KB-3-1 and the vinblastine selected KB-v1were kind gifts from Dr. Michael M. Gottesman, National Institutes of Health. The phenotype of the resistant cells was verified using cytotoxicity assays. MDCK-B1 and MDCK-MM were established by the Sleeping Beauty transposon-based gene delivery system. OVCAR-8 and NCI-ADRres cells (obtained from the Division of Cancer Treatment and Diagnosis (DCTD) Tumor Repository (National Cancer Institute, Frederick, MD, USA)) were cultivated in RPMI-1640 (Sigma Aldrich, Budapest, Hungary), and other cell lines were cultivated in Dulbecco’s Modified Eagle Medium (DMEM, Sigma Aldrich, Budapest, Hungary), supplemented with 10% fetal bovine serum, 5 mM glutamine, and 50 unit/mL penicillin and streptomycin (Life Technologies, Carlsbad, CA, USA). All cell lines were cultivated at 37 °C, 5% CO2.
(§2) MTT viability assays were performed as described earlier with minor modifications. Briefly, cells were seeded into 96-well tissue culture plates (Sarstedt, Newton, NC, USA/Orange, Braine-l’Alleud, Belgium) at a density of 5000 cells/well and allowed to attach overnight. Test compounds were added to achieve the required final concentration in a final volume of 100 µL per well. After an incubation period of 72 h, the supernatant was removed and fresh medium containing the MTT reagent (0.083 mg/mL) was added. Incubation with MTT at 37 °C was terminated after 1 h by removing the supernatant and lysing the cells with 100 µL DMSO per well. Viability of the cells was measured spectrophotometrically based on the absorbance values at 540 nm using either a Perkin Elmer Victor X3 or an EnSpire microplate reader. Data were background corrected by subtraction of the signal obtained from unstained cell lysates and normalized to untreated cells. Curves were fitted by Prism software (GraphPad Software Inc., San Diego, CA, USA) using the sigmoidal dose-response model (comparing variable and fixed slopes). […] Significance was calculated using unpaired t-tests; results are given as *: p ≤ 0.05, **: p ≤ 0.01, ***: p ≤ 0.001, ****: p ≤ 0.0001.

MES-SA/Dx5 cells = assay: MTT viability assay, MES-SA/Dx5; type: cell-based, human; conditions: for SR: Table S1, IC50 Pgp negative divided by Pgp positive cells; for IC50: Table S1, calculated as ligand equivalents; for SR_TQ: Table S1, presence of 1 µM TQ
Description: as §1, §2

[1] = Table S1, calculated as ligand equivalents, presence of 1 µM TQ, read-out: IC50 MES-SA_TQ
[2] = Table S1, ligands and in situ preformed complexes, calculated as ligand equivalents, absence of TQ, read-out: IC50 MES-SA
[3] = absence of TQ, read-out: IC50 Dx5
[4] = presence of 1 µM TQ, read-out: IC50 Dx5_TQ

SMILES	IC50 (MES-SA cells; [1])	IC50 (MES-SA cells; [2])	SR (MES-SA/Dx5 cells; absence of TQ)	IC50 (MES-SA/Dx5 cells; [3])	IC50 (MES-SA/Dx5 cells; [4])	SR_TQ (MES-SA/Dx5 cells)	Effect on viability of the cells, alone (MES-SA cells; 5 mM, MES-SA)	Effect on viability of the cells, alone (MES-SA/Dx5 cells; 5 mM, MES-SA/Dx5)
[Cu+2].[O-]c1cccc2cccnc12.[O-]c1cccc2cccnc12 [1/2 [Cu(Q-1)2]]	4140 ± 1200 nM	3770 ± 660 nM	1.86	2030 ± 460 nM	2610 ± 440 nM	1.58		
[Fe+3].[O-]c1cccc2cccnc12.[O-]c1cccc2cccnc12.[O-]c1cccc2cccnc12 [1/3 [Fe(Q-1)3]]	3070 ± 360 nM	3310 ± 520 nM	1.13	2920 ± 800 nM	2960 ± 640 nM	1.04		
[Fe+3].[O-]c1c(CN2CCCCC2)ccc2cccnc12.[O-]c1c(CN2CCCCC2)ccc2cccnc12.[O-]c1c(CN2CCCCC2)ccc2cccnc12 [1/3 [Fe(Q-3)3]]	1820 ± 710 nM	2120 ± 680 nM	2.33	910 ± 220 nM	1450 ± 250 nM	1.25		
[Cu+2].[O-]c1c(CN2CCOCC2)ccc2cccnc12.[O-]c1c(CN2CCOCC2)ccc2cccnc12 [1/2 [Cu(Q-2)2]]	2020 ± 650 nM	2270 ± 670 nM	1.29	1760 ± 560 nM	1920 ± 450 nM	1.05		
CC(=O)N[C@@H](CS)C(=O)O [NAC, N-acetyl cysteine, reference compound]							did not influence the viability	did not influence the viability
[Fe+3].[O-]c1c(CN2CCOCC2)ccc2cccnc12.[O-]c1c(CN2CCOCC2)ccc2cccnc12.[O-]c1c(CN2CCOCC2)ccc2cccnc12 [1/3 [Fe(Q-2)3]]	4350 ± 580 nM	3870 ± 880 nM	1.24	3130 ± 840 nM	4230 ± 520 nM	1.03		
[Fe+3].[O-]c1c(CNCc2ccccc2F)cc(Cl)c2cccnc12.[O-]c1c(CNCc2ccccc2F)cc(Cl)c2cccnc12.[O-]c1c(CNCc2ccccc2F)cc(Cl)c2cccnc12 [1/3 [Fe(Q-4)3]]	3540 ± 130 nM	2950 ± 1330 nM	13.14	220 ± 120 nM	3450 ± 330 nM	1.03		
[Cu+2].[O-]c1c(CNCc2ccccc2F)cc(Cl)c2cccnc12.[O-]c1c(CNCc2ccccc2F)cc(Cl)c2cccnc12 [1/2 [Cu(Q-4)2]]	1360 ± 260 nM	1460 ± 160 nM	5.03	290 ± 39 nM	1220 ± 25 nM	1.11		
[Cu+2].[O-]c1c(CN2CCCCC2)ccc2cccnc12.[O-]c1c(CN2CCCCC2)ccc2cccnc12 [1/2 [Cu(Q-3)2]]	2130 ± 650 nM	1910 ± 590 nM	2.52	760 ± 260 nM	2040 ± 360 nM	1.04		
